Reference: patent US9506039B2, “Efficient method for establishing induced pluripotent stem cells” (Kyoto University, priority 2010, dated 2016)

B1: Wnt3a: Wnt3a purchased from R&D systems Inc., added to the medium (protein, UniProt P56704 19-352, looked up)
Protein Wnt-3a: SYPIWWSLAVGPQYSSLGSQPILCASIPGLVPKQLRFCRNYVEIMPSVAEGIKIGIQECQHQFRGRRWNCTTVHDSLAIFGPVLDKATRESAFVHAIASAGVAFAVTRSCAEGTAAICGCSSRHQGSPGKGWKWGGCSEDIEFGGMVSREFADARENRPDARSAMNRHNNEAGRQAIASHMHLKCKCHGLSGSCEVKTCWWSQPDFRAIGDFLKDKYDSASEMVVEKHRESRGWVETLRPRYTYFKVPTERDLVYYEASPNFCEPNPETGSFGTRDRTCNVSSHGIDGCDLLCCGRGHNARAERRREKCRCVFHWCCYVSCQECTRVYDVHTCK

What follows are molecules tested on human dermal fibroblasts (HDF: cell name 1616) (assay: iPS cell colony establishment, 3 genes (Oct3/4, Sox2, Klf4) plus added gene or compound). Settings: Example 9, FIG. 9; Oct3/4, Sox2, Klf4 plus agent in medium (PS48 10 μM, CHIR99021 1 μM, Wnt3a 10 ng/ml); day 32.
Format: cell-based
Excerpt: The following genes were introduced into human dermal fibroblasts (HDF: cell name 1616, purchased from Cell applications, Inc.) in the same manner as in the aforementioned Example 1.
In addition, the culture condition was changed (5×10^5 cells/well), and the following genes were introduced into human dermal fibroblasts (HDF: cell name 1616, purchased from Cell applications, Inc.) in the same manner.
In the same manner as in the aforementioned Example 1, the following genes were introduced into dermal fibroblasts (HDF: cell name 1616) in the presence of each low-molecular-weight compound.
The following genes were introduced into dermal fibroblasts (HDF: cell name 1616) in the same manner as in the aforementioned Example 1.
The following genes were introduced into human dermal fibroblasts (HDF: cell name 1616) in the same manner as in the aforementioned Example 1.
Furthermore, the following genes were introduced into human dermal fibroblasts (HDF: cell name 1616).

| Molecule | number of human iPS cell colonies |
| --- | --- |
| Cc1c[nH]c(-c2cnc(NCCNc3ccc(C#N)cn3)nc2-c2ccc(Cl)cc2Cl)n1 [CHIR99021] | tended to decrease |
| O=C(O)/C=C(/CCc1ccc(Cl)cc1)c1ccccc1 [PS48] | increased significantly |
| B1 | increased significantly |
